Laboratory results from patent publication US10730870B2, “Compounds and methods for the enhanced degradation of targeted proteins” (Arvinas, Inc., priority 2015, dated 2020).

Columns and labels:
Androgen Receptor = test: Androgen receptor ELISA assay (AR degradation) in LNCaP and/or VCaP cells; assay type: cell-based; settings: AR PROTACs
Procedure: Compounds have been evaluated in this assay in LNCaP and/or VCaP cells utilizing similar protocols. The protocols used with VCaP cells are described below. The androgen receptor ELISA assay was performed using PathScan AR ELISA (Cell Signaling Catalog #12850) according to the following assay steps:
VCaP cells are seeded at 30,000 cells/well at a volume of 200 μL/well in VCaP assay medium [Phenol red free RPMI (Gibco Cat #11835-030); 5% Charcoal Stripped (Dextran treated) FBS (Omega Scientific, Cat # FB-04); Pen/Strep Life Technologies (Gibco Cat #: 10378-016); 0.1 nM R1881 (Sigma, Cat # R0908) is added upon the start of the assay, not during initial plating of the cells) in Corning 3904 plates. The cells are grown for a minimum of 3 days.
(2)(i) Make 10× stock plate in media; (ii) transfer 2.5 μL of the 1000× stock to a new 10× stock plate (use 12 channel pipet, start at A (DMSO control) work thru H. When 247.5 μL of media is added to this plate, it will serve as a 10× stock; (iii) make media+1 nM R1881 for making 10× stock plate; (iv) add 247.5 μL of media with 1 nM R1881 to each well of the 10× stock plate, mix.
Then 22 μL of 10× stock is added to cells and incubated for 24h. 1× Cell Signaling Cell lysis buffer is made (Catalogue #9803; comes with the kit)—prepare for 50 μL/well. Keep on ice. Media is aspirated, and 50 μL 1× cell lysis buffer/well is added. The cells are placed on ice for 10 minutes. The solution is mixed and transferred to PCR plate, and centrifuged at 4 C for 10 minutes at 4000 rpm.
5 μL is transferred to fresh plate (use immediately or freeze −80 C); 115 μL ELISA Dilutant is added (0.15 ug/ml-0.075 ug/ml; comes with the PathScan ELISA).
Add 100 μL/well AR Elisa; cover and shake, 37 C for 2 hrs; dump, tap, wash 4×200 μL ELISA wash buffer; add 100 μL/well mouse AR detection Ab; cover and shake, 37 C for 1 hr; dump, tap, wash 4×200 μL ELISA wash buffer; add 100 μL/well anti-mouse—HRP conjugated Ab (comes with the kit); cover and shake, 37 C for 30 min; allow TMB reagent to come to RT; dump, tap, wash 4×200 μL Elisa wash buffer; tap; add 100 μL TMB, shake 5 min—while watching color. Add the stop reagent when light blue color develops. Add 100 μL Stop solution; shake and read at 450 nm.
The results presented in Table 3 were generated using the androgen receptor ELISA Assay described above, where compound potencies were characterized in highest percentage of Androgen Receptor degradation (Dmax) observed.

VHL = VHL (Homo sapiens (Human), UniProt P40337); test: VHL fluorescence polarization (FP) competition assay; assay type: binding

Row | Compound | IC50 (VHL; 1% in DMSO) [µM] | also measured
1 | Cc1ncsc1-c1ccc([C@H](C)NC(=O)[C@@H]2C[C@@H](O)CN2C(=O)[C@H](C(C)C)n2cc(-c3ccnc(OC4CN(c5ccc(C(=O)N[C@H]6C(C)(C)[C@H](Oc7ccc(C#N)c(Cl)c7)C6(C)C)cn5)C4)c3)cn2)cc1 | – | Dmax (highest percentage of Androgen Receptor degradation) (Androgen Receptor): +++ (51%≤Dmax≤70%)
2 | Cc1ncsc1-c1ccc([C@H](C)NC(=O)[C@@H]2C[C@@H](O)CN2C(=O)[C@H](C(C)C)n2cc(-c3ccnc(OC4CN(c5ncc(C(=O)NC6C(C)(C)C(Oc7ccc(C#N)c(Cl)c7)C6(C)C)cn5)C4)c3)cn2)cc1 (stereo partly drawn) | – | Dmax (highest percentage of Androgen Receptor degradation) (Androgen Receptor): +++ (51%≤Dmax≤70%)
3 | Cc1ncsc1-c1ccc([C@H](C)NC(=O)[C@@H]2C[C@@H](O)CN2C(=O)[C@H](C(C)C)n2cc(OCCCOCCC(O)CCOc3ccc(N4C(=S)N(c5ccc(C#N)c(C(F)(F)F)c5)C(=O)C4(C)C)cc3)cn2)cc1 (stereo partly drawn) | – | Dmax (highest percentage of Androgen Receptor degradation) (Androgen Receptor): +++ (51%≤Dmax≤70%)
4 | Cc1ncsc1-c1ccc(CNC(=O)[C@@H]2C[C@@H](O)CN2C(=O)C(C(C)C)n2cc(OC3CCN(c4ccc(-c5ccc(N6C(=S)N(c7ccc(C#N)c(C(F)(F)F)c7)C(=O)C6(C)C)cc5)cn4)CC3)cn2)cc1 (stereo partly drawn) | – | Dmax (highest percentage of Androgen Receptor degradation) (Androgen Receptor): ++ (26%≤Dmax≤50%)
5 | Cc1ncsc1-c1ccc([C@H](C)NC(=O)[C@@H]2C[C@@H](O)CN2C(=O)[C@H](C(C)C)n2cc(-c3ccnc(N4CCC(Nc5ccc(C(=O)N[C@H]6C(C)(C)[C@H](Oc7ccc(C#N)c(Cl)c7)C6(C)C)cc5)C4)c3)cn2)cc1 (stereo partly drawn) | – | Dmax (highest percentage of Androgen Receptor degradation) (Androgen Receptor): ++ (26%≤Dmax≤50%)
6 | Cc1ncsc1-c1ccc(CNC[C@@H]2C[C@@H](O)CN2C(=O)[C@H](C(C)C)N2Cc3ccccc3C2=O)cc1 [Example 121, 2-((S)-1-((2S,4R)-4-hydroxy-2-((4-(4-methylthiazol-5-yl)benzylamino)methyl)pyrrolidin-1-yl)-3-methyl-1-oxobutan-2-yl)isoindolin-1-one] | > 100 | –
7 | Cc1ncsc1-c1ccc(CNC(=O)[C@@H]2C[C@@H](O)CN2C(=O)[C@@H](NC(=O)[C@H](C)NC(=O)OC(C)(C)C)C(C)(C)C)cc1 [Example 122, tert-butyl (S)-1-((S)-1-((2S,4R)-4-hydroxy-2-(4-(4-methylthiazol-5-yl)benzylcarbamoyl)pyrrolidin-1-yl)-3,3-dimethyl-1-oxobutan-2-ylamino)-1-oxopropan-2-ylcarbamate] | 2.18 | –
8 | Cc1ncsc1-c1ccc(CNC(=O)[C@@H]2C[C@@H](O)CN2C(=O)[C@@H](NC(=O)[C@H](C)N)C(C)(C)C)cc1 [Example 123, (2S,4R)-1-((S)-2-((S)-2-aminopropanamido)-3,3-dimethylbutanoyl)-4-hydroxy-N-(4-(4-methylthiazol-5-yl)benzyl)pyrrolidine-2-carboxamide] | 4.23 | –
9 | Cc1ncsc1-c1ccc(CNC(=O)[C@@H]2C[C@@H](O)CN2C(=O)[C@@H](NC(=O)CNC(=O)OC(C)(C)C)C(C)(C)C)cc1 [Example 124, tert-butyl 2-((S)-1-((2S,4R)-4-hydroxy-2-(4-(4-methylthiazol-5-yl)benzylcarbamoyl)pyrrolidin-1-yl)-3,3-dimethyl-1-oxobutan-2-ylamino)-2-oxoethylcarbamate] | 1.11 | –
10 | Cc1ncsc1-c1ccc(CNC(=O)[C@@H]2C[C@@H](O)CN2C(=O)[C@@H](NC(=O)CN)C(C)(C)C)cc1 [Example 125, (2S,4R)-1-((S)-2-(2-aminoacetamido)-3,3-dimethylbutanoyl)-4-hydroxy-N-(4-(4-methylthiazol-5-yl)benzyl)pyrrolidine-2-carboxamide] | 1.64 | –
11 | Cc1ncsc1-c1ccc(CNC(=N)[C@@H]2C[C@@H](O)CN2C(=O)[C@H](C(C)C)N2Cc3ccccc3C2=O)cc1 [Example 126, (2S,4R)-4-hydroxy-1-((S)-3-methyl-2-(1-oxoisoindolin-2-yl)butanoyl)-N-(4-(4-methylthiazol-5-yl)benzyl)pyrrolidine-2-carboximidamide] | 79.5 | IC50 (VHL; 10% in DMSO): 112 µM
12 | CC(C)[C@@H](C(=O)N1C[C@H](O)C[C@H]1C(=O)NCc1ccc(C2(O)COC2)cc1)N1Cc2ccccc2C1=O [Example 127, (2S,4R)-4-hydroxy-N-(4-(3-hydroxyoxetan-3-yl)benzyl)-1-((S)-3-methyl-2-(1-oxoisoindolin-2-yl)butanoyl)pyrrolidine-2-carboxamide] | – | IC50 (VHL; 10% in DMSO): 406 µM
13 | CC(=O)N[C@H](C(=S)N1C[C@H](O)C[C@H]1C(=O)NCc1ccc(-c2scnc2C)cc1)C(C)C [Example 130, (2S,4R)-1-((S)-2-acetamido-3-methylbutanethioyl)-4-hydroxy-N-(4-(4-methylthiazol-5-yl)benzyl)pyrrolidine-2-carboxamide] | 3.89 | –
14 | Cc1ncsc1-c1ccc(CNC(=O)C2(C)C[C@@H](O)CN2C(=O)[C@H](C(C)C)N2Cc3ccccc3C2=O)cc1 (stereo partly drawn) [Example 131] | – | VHL FP Assay IC50 (VHL; 1% in DMSO): Not Active
15 | Cc1ncsc1-c1ccc(CNC(=O)C2(C)C[C@@H](O)CN2C(=O)[C@H](C(C)C)N2Cc3ccccc3C2=O)cc1 (stereo partly drawn) [Example 132] | 1.69 | –
16 | Cc1ncoc1-c1ccc(CNC(=O)[C@@H]2C[C@@H](O)CN2C(=O)[C@H](C(C)C)N2Cc3ccccc3C2=O)cc1 [Example 133, (2S,4R)-4-hydroxy-1-((S)-3-methyl-2-(1-oxoisoindolin-2-yl)butanoyl)-N-(4-(4-methyloxazol-5-yl)benzyl)pyrrolidine-2-carboxamide] | 1.64 | –
17 | CC(C)[C@@H](C(=O)N1C[C@H](O)C[C@H]1C(=O)NCc1ccc(-c2ccno2)cc1)N1Cc2ccccc2C1=O [Example 136, (2S,4R)-4-hydroxy-N-(4-(isoxazol-5-yl)benzyl)-1-((S)-3-methyl-2-(1-oxoisoindolin-2-yl)butanoyl)pyrrolidine-2-carboxamide] | 5.59 | –
18 | Cc1cc(C(C)(C)C(=O)N2C[C@H](O)C[C@H]2C(=O)NCc2ccc(-c3scnc3C)cc2)on1 [Example 140, (2S,4R)-4-hydroxy-1-(2-methyl-2-(3-methylisoxazol-5-yl)propanoyl)-N-(4-(4-methylthiazol-5-yl)benzyl)pyrrolidine-2-carboxamide] | 157 | –
19 | Cc1ncsc1-c1ccc(CNC(=O)[C@@H]2C[C@@](C)(O)CN2C(=O)[C@H](C(C)C)N2Cc3ccccc3C2=O)cc1 [Example 142, (2S,4R)-4-hydroxy-4-methyl-1-((S)-3-methyl-2-(1-oxoisoindolin-2-yl)butanoyl)-N-(4-(4-methylthiazol-5-yl)benzyl)pyrrolidine-2-carboxamide] | 134 | –
20 | CCC(C(=O)N1C[C@H](O)C[C@H]1C(=O)NCc1ccc(-c2scnc2C)cc1)c1cc(C)no1 (stereo partly drawn) [Example 143, (2S,4R)-4-hydroxy-1-(2-(3-methylisoxazol-5-yl)butanoyl)-N-(4-(4-methylthiazol-5-yl)benzyl)pyrrolidine-2-carboxamide] | 0.964 | –
21 | Cc1ncsc1-c1ccc(CNC(=O)[C@@H]2C[C@@](O)(CO)CN2C(=O)[C@H](C(C)C)N2Cc3ccccc3C2=O)cc1 [Example 144, (2S,4S)-4-hydroxy-4-(hydroxymethyl)-1-((S)-3-methyl-2-(1-oxoisoindolin-2-yl)butanoyl)-N-(4-(4-methylthiazol-5-yl)benzyl)pyrrolidine-2-carboxamide] | – | VHL FP Assay IC50 (VHL; 1% in DMSO): Not active
22 | Cc1ncsc1-c1ccc(CNC(=O)[C@@H]2[C@@H](O)[C@@H](O)CN2C(=O)[C@H](C(C)C)N2Cc3ccccc3C2=O)cc1 [Example 147, (2S,3R,4S)-3,4-dihydroxy-1-((S)-3-methyl-2-(1-oxoisoindolin-2-yl)butanoyl)-N-(4-(4-methylthiazol-5-yl)benzyl)pyrrolidine-2-carboxamide] | 12.4 | –
23 | CCC[C@H](NC(C)=O)C(=O)N1C[C@H](O)C[C@H]1C(=O)NCc1ccc(-c2scnc2C)cc1 [Example 148, (2S,4R)-1-((S)-2-acetamidopentanoyl)-4-hydroxy-N-(4-(4-methylthiazol-5-yl)benzyl)pyrrolidine-2-carboxamide] | 6.2 | –
